Experimental findings from ChEMBL document CHEMBL4842323, “Aromatic Polyketides and Hydroxamate Siderophores from a Marine-Algae-Derived Streptomyces Species” (J Nat Prod, 2021) are described below.

Assay [1] in a line: Binding affinity to Fe3+ assessed as compound-Fe3+ complex formation incubated for 3 hrs by Chrome Azurol S assay.
Assay [2] relates to Pseudomonas aeruginosa. Briefly: Antibacterial activity against Pseudomonas aeruginosa ATCC10145 assessed as inhibition of bacterial growth incubated for 12 hrs by agar dilution method. Type of assay: functional, organism-based.
The subject of assay [3] is Escherichia coli. Briefly: Antibacterial activity against Escherichia coli ATCC11775 assessed as inhibition of bacterial growth incubated for 12 hrs by agar dilution method. Type of assay: functional, organism-based.
The test system of assay [4] is Staphylococcus aureus. The experiment in a line: Antibacterial activity against Staphylococcus aureus ATCC6538 assessed as inhibition of bacterial growth incubated for 12 hrs by agar dilution method. In kind it is functional, organism-based. (In general: In agar dilution the substance is mixed into plates at graded concentrations.)
Assay [5] deals with Staphylococcus aureus. Briefly: Antibacterial activity against methicillin-resistant Staphylococcus aureus subsp. aureus ATCC43300 assessed as inhibition of bacterial growth incubated for 12 hrs by agar dilution method. Type of assay: functional, organism-based.
Assay [6] has as its system Candida albicans. The experiment in a line: Antifungal activity against Candida albicans ATCC10231 assessed as inhibition of fungal growth incubated for 12 hrs by agar dilution method. Type of assay: functional, organism-based.
The subject of assay [7] is Nakaseomyces glabratus. The experiment in a line: Antifungal activity against Candida glabrata ATCC2001 assessed as inhibition of fungal growth incubated for 12 hrs by agar dilution method. In kind it is functional, organism-based.
Assay [8] concerns B16. The experiment in a line: Cytotoxicity against mouse B16 cells assessed as reduction in cell viability incubated for 72 hrs by MTT assay. In kind it is functional, cell-based.

In general, pEC50 refers to the negative decadic logarithm of the EC50, by convention in mol/L.

pEC50: −log10 of the molar value. Counter-ions that a name gives are not always drawn. The source made the active and inactive calls. The rule behind the calls is not given here.

With `CC(=O)N(O)CCCCCNC(=O)CCC(=O)N(O)CCCCCNC(=O)/C=C/c1ccccc1`, in assay [1], the pEC50 was 4.41. Also, the result in assay [2], in assay [3], in assay [4], in assay [5], in assay [6] and in assay [7] was inactive. For the same compound, the outcome in assay [8] was inactive.

With `CC(=O)N(O)CCCCCNC(=O)CCC(=O)N(O)CCCCCNC(=O)CCC(=O)N(O)CCCCCN` [DEFEROXAMINE MESYLATE], the pEC50 in assay [1] is 4.69.

With `COc1cc(-c2c(O)cccc2-c2ccccc2)oc(=O)c1`, the result in assay [2], in assay [3], in assay [4], in assay [5], in assay [6] and in assay [7] was inactive. For the same compound, in assay [8], the result was inactive.

For the compound `COc1cc([C@@H]2c3cccc(O)c3C(=O)C[C@@]2(O)Cc2ccccc2)oc(=O)c1`, the result in assay [2], in assay [3], in assay [4], in assay [5], in assay [6] and in assay [7] was inactive. Also, the outcome in assay [8] was inactive.

With `CC(=O)N(O)CCCCCNC(=O)CCC(=O)N(O)CCCCCNC(=O)CCc1ccccc1`, the pEC50 in assay [1] is 4.89. The result in assay [2], in assay [3], in assay [4], in assay [5], in assay [6] and in assay [7] was inactive. For the same compound, the result in assay [8] was inactive.

For the compound `COc1cc(Cc2cccc(O)c2)oc(=O)c1`, the result in assay [2], in assay [3], in assay [4], in assay [5], in assay [6] and in assay [7] was inactive. Besides, in assay [8], the result was inactive.

Consider `COc1cc(Cc2cccc(O)c2C(=O)c2ccccc2)oc(=O)c1`, for which the result in assay [2], in assay [3], in assay [4], in assay [5], in assay [6] and in assay [7] was inactive. The result in assay [8] was inactive.

On to `O=C1CCC(=O)N(O)CCCCCNC(=O)CCC(=O)N(O)CCCCCNC(=O)CCC(=O)N(O)CCCCCN1` [NOCARDAMINE], for which the pEC50 in assay [1] is 4.65. Moreover, the result in assay [2], in assay [3], in assay [4], in assay [5], in assay [6] and in assay [7] was inactive. Also, the result in assay [8] was inactive.
